Reference: ChEMBL document CHEMBL6078681, “Discovery and Optimization of Dihydroquinolin-2(1H)-ones as Novel Highly Selective and Orally Bioavailable Phosphodiesterase 5 Inhibitors for the Treatment of Pulmonary Arterial Hypertension” (J Med Chem, 2024)

Key:
[1] = biological target: T1, cGMP-specific 3',5'-cyclic phosphodiesterase (Homo sapiens, UniProt O76074); assay: Inhibition of PDE5A (unknown origin) using […] as substrate incubated for 1 hr by fluorescence polarization assay
[2] = biological target: T1, cGMP-specific 3',5'-cyclic phosphodiesterase; assay: Inhibition of PDE5A (unknown origin) using […] as substrate at 1000 nM incubated for 1 hr by fluorescence polarization assay relative to control

Cc1ccc(-c2c(C#N)c(=O)n(Cc3ccccc3)c3c(NC(C)c4ccccc4)cccc23)cc1 (stereo not given)
IC50 [1]: 11 nM

Cc1ccc(-c2c(C#N)c(=O)n(Cc3ccccc3)c3c(NC(C)c4ccccn4)cccc23)cc1 (stereo not given)
IC50 [1]: 10 nM

CC(C)c1c(C#N)c(=O)n(Cc2ccccc2)c2c(NC(C)c3ccccn3)cccc12 (stereo not given)
IC50 [1]: 39 nM

CC(Nc1cccc2c(C3CCCCC3)c(C#N)c(=O)n(Cc3ccccc3)c12)c1ccccn1 (stereo not given)
IC50 [1]: 34 nM

COc1ccc(-c2c(C#N)c(=O)n(Cc3ccccc3)c3c(NC(C)c4ccccn4)cccc23)cc1 (stereo not given)
IC50 [1]: 5 nM

COc1ccc(-c2c(C#N)c(=O)n(Cc3ccccc3)c3c(N[C@@H](C)c4ccccn4)cccc23)cc1
IC50 [1]: 8 nM

Cc1ccc(-c2c(C#N)c(=O)n(Cc3ccc4c(c3)OCO4)c3c(NC(C)c4ccccn4)cccc23)cc1 (stereo not given)
IC50 [1]: 198 nM

Cc1ccc(-c2c(C#N)c(=O)n(CC3CC3)c3c(NC(C)c4ccccn4)cccc23)cc1 (stereo not given)
inhibition [2]: 35%

Cc1ccc(-c2c(C#N)c(=O)n(Cc3ccncc3)c3c(N[C@H](C)c4ccccn4)cccc23)cc1
IC50 [1]: 73 nM

Cc1ccc(-c2c(C#N)c(=O)n(CC3CCCC3)c3c(NC(C)c4ccccn4)cccc23)cc1 (stereo not given)
IC50 [1]: 55 nM
